Data taken from PMC7352342, “Inhibition of Patched Drug Efflux Increases Vemurafenib Effectiveness against Resistant Braf^V600E Melanoma” (Cancers, 2020).

Assays:
[1] = Cytotoxicity assay (neutral red), A375 cells; type: cell-based, human; conditions: human, A375 melanoma cells, A375; 24 or 48 h; read-out: sPAH-IC50 (cytotoxicity of sPAH alone)
Method: (§1) Human melanoma cell lines A375 and MeWo were purchased from ATCC, and cultured in DMEM medium supplemented with 10% fetal bovine serum and penicillin/streptomycin (Invitrogen) at 37 °C in a 5% CO2/95% water-saturated air atmosphere. Melanoma cell lines SKMEL 28, SKMEL V3, WM9S, and WM9R were provided by Robert Ballotti (C3M, Nice, France). MeWo-dxrR cells were obtained by adding increasing concentrations of doxorubicin, up to 0.2 µM, in the culture medium over 6 months. These cells were grown in medium supplemented with 0.2 µM dxr. WM9R cells were obtained by adding increasing concentrations of vemurafenib, up to 5 µM, in the culture medium over 6 months. These cells were grown in medium supplemented with 5 µM vemurafenib. HEK cells were grown in 75 mm tissue culture dishes (Falcon, Franklin Lakes, NJ, USA) in Dulbecco’s modified Eagle’s medium (Gibco, Life Technologies, Saint Aubin, France) supplemented with 10% fetal calf serum (Hyclone, Thermo Fisher Scientific GMBH, Ulm, Germany) and 1% penicillin/streptomycin (Gibco, Life Technologies, Saint Aubin, France) in a humidified incubator at 37 °C (5% CO2).
(§2) Cells were seeded in 96-well plates in triplicate and grown in medium to achieve 70 to 80% confluence. Medium was then removed and replaced with 100 µL/well of complete medium containing PAH or DMSO as a control. After 2 h, 100 µL of complete medium containing serial dilutions of dxr, cisplatin or vemurafenib were added. Plates were incubated at 37 °C and 5% CO2. After 24 or 48 h, cells were incubated for 3 h at 37 °C with 100 µL/well neutral red (NR) solution (50 µg/mL in medium) following the manufacturer’s protocol. Measurements were made in microplate readers (Multiskan Go Microplate Spectrophotometer from Thermo Scientific).

A375 cells = assay: Cytotoxicity assay (neutral red), A375 cells; type: cell-based, human; conditions: A375
Method: as §1, §2

[2] = Cytotoxicity assay (neutral red), WM9S cells; type: cell-based; conditions: human, WM9S melanoma cells; read-out: sPAH-IC50 (cytotoxicity of sPAH alone)
Method: as §1
(§3) Cells were seeded in 96-well plates in triplicate and grown in medium to achieve 70 to 80% confluence. […] Measurements were made in microplate readers (Multiskan Go Microplate Spectrophotometer from Thermo Scientific).

WM9S cells = assay: Cytotoxicity assay (neutral red), WM9S cells; type: cell-based; conditions: WM9S; 24 h; sPAH between 10 and 20 µM
Method: as §1, §3

[3] = Cytotoxicity assay (neutral red), WM9R cells; type: cell-based; conditions: human, WM9R melanoma cells (vemurafenib-resistant); read-out: sPAH-IC50 (cytotoxicity of sPAH alone)
Method: as §1, §3

WM9R cells = assay: Cytotoxicity assay (neutral red), WM9R cells; type: cell-based; conditions: WM9R; sPAH 20 µM; 24 h
Method: as §1, §3

human Smoothened = molecular target: T1, human Smoothened (Homo sapiens, UniProt Q99835); assay: Microscale thermophoresis on membranes from yeast expressing human Smoothened; type: binding; conditions: MST; sPAH 15 nM to 250 µM
T1 construct: made in house; host or cells: yeast (membrane preparation)
T1 sequence (Q99835 28-787): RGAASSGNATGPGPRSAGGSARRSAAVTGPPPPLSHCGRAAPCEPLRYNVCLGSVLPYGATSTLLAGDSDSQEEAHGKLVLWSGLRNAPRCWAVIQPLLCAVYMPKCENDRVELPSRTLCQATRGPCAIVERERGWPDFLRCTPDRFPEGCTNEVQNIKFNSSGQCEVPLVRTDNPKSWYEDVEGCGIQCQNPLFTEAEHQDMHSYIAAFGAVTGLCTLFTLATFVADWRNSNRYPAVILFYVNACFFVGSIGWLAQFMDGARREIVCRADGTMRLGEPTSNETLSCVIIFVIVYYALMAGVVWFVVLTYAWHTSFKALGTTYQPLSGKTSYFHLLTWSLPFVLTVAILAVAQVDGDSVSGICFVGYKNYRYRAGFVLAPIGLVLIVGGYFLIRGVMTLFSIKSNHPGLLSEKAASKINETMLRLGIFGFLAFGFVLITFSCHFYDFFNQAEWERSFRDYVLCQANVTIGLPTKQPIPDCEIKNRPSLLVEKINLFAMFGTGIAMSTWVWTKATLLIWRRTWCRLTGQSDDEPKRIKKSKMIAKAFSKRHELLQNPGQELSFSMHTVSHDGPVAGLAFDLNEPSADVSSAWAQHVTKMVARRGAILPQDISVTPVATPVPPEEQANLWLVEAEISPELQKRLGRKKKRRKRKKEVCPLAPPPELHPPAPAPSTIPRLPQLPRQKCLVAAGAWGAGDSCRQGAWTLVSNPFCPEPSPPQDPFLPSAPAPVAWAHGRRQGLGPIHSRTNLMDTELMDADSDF
Method: Microscale thermophoresis (MST) is a biophysical technique that measures the strength of the interaction between two molecules by detecting a variation in the fluorescence signal of a fluorescently labeled target as a result of an IR-laser induced temperature change. The range of the variation in the fluorescence signal correlates with the binding of a ligand to the fluorescent target.
Membranes from yeast expressing human Ptch1 or human Smoothened were incubated at 30 µg/mL with 20 nM of the fluorescent dye NT-647 2nd gen (NanoTemper Technologies, München, Germany) to label the His-tag present at the c-terminus of both proteins. […] The fluorescence within the capillary is excited and detected through the same objective. […] The MST response of fluorescent proteins within the temperature gradient is detected. After activation of the IR laser, a decrease in fluorescence is observed which corresponds to temperature-related intensity change (TRIC) triggered by the fast temperature change and thermophoretic movement of the fluorescent proteins out of the heated sample volume. […] For analysis, the change in MST signal is expressed as the change in the normalized fluorescence (Fnorm), which is defined as F1/F0. […] The sPAH Kd was determined for 3 independent experiments.

chick embryos = assay: sPAH toxicity on chick embryos; type: in vivo; conditions: 10 days
Method: These experiments were performed by the company INOVOTION (La Tronche, France). […] At this time (E9), an access point to the chorioallantoic membrane (CAM) was made by drilling a small hole through the eggshell into the air sac and a 1 cm^2 window was cut in the eggshell above the CAM. Twenty-one eggs were used for each condition. […] MeWo cells cultivated in DMEM medium with 10% FBS (and 1% penicillin/streptomycin) were detached with trypsin, washed with complete medium, labeled, and suspended in PBS. An inoculum of 3 × 10^6 cells was added onto the CAM of each egg (E9). Eggs were then randomized in 4 groups. The chick embryos were then treated every two days (E11, E13, E15, E17) for 10 days in total, by adding 100 µL of vehicle (1% DMSO in PBS) as a negative control or 100 µL of sPAH at 3 different doses onto the CAM. The number of dead embryos evaluates the toxicity after 10 days of the treatment, as does the observation of 22 abnormality checkpoints in surviving embryos.

Question: With `COc1cc(C)c(CC/C(C)=C/Cc2cc(O)ccc2O)c(C)c1C` [sPAH, Panicein A hydroquinone] as the molecule, how does the IC50 [1] read?
Answer: ~40 µM

Question: And the IC50 (A375 cells; 24 or 48 h, read-out: sPAH-IC50 (cytotoxicity of sPAH alone))?
Answer: 38.3 ± 6.8 µM

Question: What about the “sensitivity of cells to vemurafenib in the presence of sPAH” value (A375 cells; 24 h, sPAH between 10 and 20 µM) of the same molecule?
Answer: significantly increased

Question: And the “IC50 of cisplatin in the presence of sPAH” value (A375 cells; sPAH 20 µM vs DMSO (Figure S2))?
Answer: significantly decreased

Question: And the IC50 [2]?
Answer: 28.6 ± 5.1 µM

Question: And the “sensitivity of cells to vemurafenib in the presence of sPAH” value (WM9S cells)?
Answer: significantly increased

Question: And the IC50 [3]?
Answer: 41 ± 6.2 µM

Question: What about the “change of the IC50 of vemurafenib in the presence of sPAH” value (WM9R cells) of the same molecule?
Answer: decrease by a factor of ten

Question: And the “binding to membranes from yeast expressing Smoothened” value (human Smoothened)?
Answer: does not bind

Question: What about the “abnormalities in surviving embryos (22 checkpoints)” value (chick embryos; 100 µM to 1 mM) of the same molecule?
Answer: no abnormalities were observed

Question: What about the acute toxicity (chick embryos; up to the highest dose of 1 mM) of the same molecule?
Answer: No acute toxicity was observed
